According to paper PMC9727064, “Performance assessment and economic analysis of a human Liver-Chip for predictive toxicology” (Communications Medicine, 2022):
“And” between values parts separate entries of the source, which are not always exact repeats. Equal values may be shown once. Read-outs that look alike come from different tables or passages of the source.

How the values were obtained:
[1] = test system: human Liver-Chip (hepatocyte layer); experiment: Liver-Chip immunofluorescence imaging (caspase 3/7, TMRM, AdipoRed/LipidTOX); format: cell-based; settings: for Immunofluorescent findings, donor one (Supplementary Figure 3) / Immunofluorescent findings, donor three (Supplementary Figure 3) / Immunofluorescent findings, donor two (Supplementary Figure 3): day 7 post-drug administration, hepatocyte layer, top channel; for Immunofluorescence staining result in words: caspase 3/7 (apoptosis) or TMRM (mitotoxicity), 7 days
Experimental: Chips were detached from pods and washed once with PBS. […] Afterwards, chips were washed with PBS and stored at 4 °C until staining. Following fixation, chips corresponding to low, medium, and high concentrations from each group were cut in half with a razor blade perpendicular to the co-culture channels. One half was used in the following staining protocol, while the other half was stored for future staining. All stains and washes utilized the bubble method, in which a small amount of air is flowed through the channel prior to bulk wash media to prevent a liquid-liquid dilution of the staining solution. […] Following 15 minutes of incubation at room temperature, each channel was washed with 200 µL of PBS (alternating channels, 2× for top and 3× for bottom). As an alternative lipid accumulation marker, 100 µL of HCS LipidTOX Deep Red (ThermoFisher, H34477) was diluted 1:1000 v/v in PBS with NucBlue counterstain and added to the top channel. After a 30 min incubation at room temperature, the chips were again allowed to reach room temperature before the channels were alternatively washed with 200 µL of PBS, the bottom channel undergoing three washes and the top channel undergoing two. Chips were then imaged using the Opera Phenix. Following lipid and DAPI staining and imaging, chips were stained with a […] (MRP2) antibody to visualize the bile canalicular structures characteristic of healthy Liver-Chips. […] Then, each channel was washed with 200 µL of PBS (alternating channels, 2× for top and 3× for bottom). […] Next, primary antibody Mouse anti-MRP2 (Abcam, ab3373) was prepared 1:100 in the original blocking buffer, diluted 1:4 in PBS. 100 µL of solution was added to each channel, and chips were stored overnight at 4 °C. The following day, each channel was washed with 200 µL of PBS (alternating channels, 2× for top and 3× for bottom). […] 100 µL of solution was added to each channel and chips incubated at room temperature, protected from light, for two hours. Then, each channel was washed with 200 µL of PBS (alternating channels, 2× for top and 3× for bottom). Chips were imaged immediately or stored at 4 °C until ready for imaging on the Opera Phenix. Chip replicates designated for live cell imaging were washed with PBS utilizing the bubble method. Chips were then cut in half perpendicular to the co-culture channels. […] The bottom chips halves were stained with NucBlue (Thermo) to visualize nuclei and Tetramethylrhodamine, methyl ester (TMRM) (ThermoFisher, I34361) to visualize active mitochondria. This staining panel was prepared in PBS with 5% FBS, with NucBlue at 2 drops per mL and TMRM at a 1:1000 ratio in original blocking buffer, diluted 1:4 in PBS. Chips were incubated in the dark at 37 °C for 30 min, and then each channel was washed with 200 µL of PBS (alternating channels, 2× for top and 3× for bottom). The chips were kept at 37 °C, protected from light, until ready for imaging with the Opera Phenix. Fluorescent confocal image acquisition was performed using the Opera Phenix High-Content Screening System and Harmony 4.9 Imaging and Analysis Software (PerkinElmer). Before acquisition, the Phenix internal environment was set to 37 °C and 5% CO2. […] Whole chips were placed directly into each slot, while top and bottom half chips were matched and combined in one chip slot. Chips were aligned flush with the adapter and one another. Any bubbles identified from visual inspection were washed out with PBS. Once ready, the stained chips were covered with transparent plate film to seal channel ports and loaded into the Phenix. […] Z-stacks were generated with 3.6 µm between slices for 28–32 planes so that the epithelium was located around the center of the stack. […] Raw images from fixed and live imaging were exported in TIFF format from the Harmony software. Using scripts written for FIJI (ImageJ), TIFFs across three color channels and multiple z-stacks were compiled into composite images for each field of view in each chip. […]

[2] = test system: human Liver-Chip (hepatocytes and non-parenchymal cells); settings: for Morphology Score: injury score 0-4, averaged, one line per replicate chip
Experimental: At least four to six brightfield images were acquired per chip for morphology analysis. […] Brightfield images were acquired across three fields of view on days 1, 3, and 7 for each cycle. Cytotoxicity classification was performed while acquiring images for both NPCs and hepatocytes. Images were then scored zero to four by blinded individuals (n = 2) based on severity of agglomeration of cell debris for both channels. The scoring matrix and representative images have been included in the supplement (Supplementary Fig. 1).
Hepatocyte layer on Chips
Non-parenchymal cell layer on Chips
Supplementary Figure 1. (a) Representative brightfield images to depict the cellular morphology score in the top channel of the Liver-Chip which contains hepatocytes. A score of 0 represents no hepatotoxicity detected, which is defined by 95-100% healthy hepatocyte morphology, hexagonal shape containing binucleated cells, clear cell cytoplasm, distinctive cell junctions and less than 5% dead cells. A score of 1 […]
cells. A score of 2 represents mild hepatotoxicity with > 70% monolayer of hepatocytes visible, evidence that cells have begun to lose their distinct cell junctions, many cells contain a granulated cytoplasm but < 30% are dead cells. A score of 3 represents moderate hepatotoxicity with severe granulation of cytoplasm and most of the cells have lost their junctions. Approximately 50% of the cells are considered dead. A score of 4 represents severe hepatotoxicity with agglomeration of cell debris and > 50% of the cells are considered dead. The pores on the membrane become visible as there is no longer a cellular monolayer. (b) Representative brightfield images to depict the cellular morphology score in the bottom channel of the Liver-Chip which contains non-parenchymal cells. A score of 0 represents no cytotoxicity detected, with an intact monolayer and <1% of the cells are dead. A score of 1 represents at least 90% of the monolayer is present and there are <10% dead cells. A score of 2 represents mild cytotoxicity with > 80% of the monolayer present and < 20% are dead cells. A score of 3 represents moderate cytotoxicity with > 50% of the monolayer present and < 50% are dead cells. A score of 4 represents severe cytotoxicity with > 50% of the cells are considered dead. (bar, 50 μm). […]

[3] = lowest concentration causing an increase in cellular morphology score, donor 1
[4] = lowest concentration causing an increase in cellular morphology score, donor 2
[5] = lowest concentration causing an increase in cellular morphology score, donor 3

SMILES	Immunofluorescent findings, donor one (Supplementary Figure 3) [1]	Immunofluorescent findings, donor three (Supplementary Figure 3) [1]	IF imaging Donor 1 ([1]; matched pair analysis)	IF imaging Donor 2 ([1]; matched pair analysis)	IF imaging Donor 3 ([1]; matched pair analysis)	Morphology Donor 1 [2, 3]	Morphology Donor 2 [2, 4]	IF imaging Donor 1 ([1]; expanded drug list)	Morphology Donor 1 ([2]; human)	Immunofluorescent findings, donor two (Supplementary Figure 3) [1]	Morphology Donor 2 ([2]; human)	also measured
COC(c1ccccc1)(c1ccccc1)[C@H](Oc1nc(C)cc(C)n1)C(=O)O [Ambrisentan]	No findings	No findings	No findings	No findings	No findings	>300 multiples of the unbound human Cmax	>1000 multiples of the unbound human Cmax	–	–	–	–	Morphology Donor 3 [2, 5]: >300 multiples of the unbound human Cmax
C=C[C@@H]1C[C@]1(NC(=O)[C@@H]1C[C@@H](Oc2ncc(OC)c3ccc(Cl)cc23)CN1C(=O)[C@@H](NC(=O)OC(C)(C)C)C(C)(C)C)C(=O)NS(=O)(=O)C1CC1 [Asunaprevir]	–	–	–	–	–	–	–	Apoptosis	1000 unbound human Cmax multiplier	–	–	Immunofluorescence staining result in words [1]: apoptosis-mediated cell death; Morphological injury score change in words [2]: concentration and time-dependent changes
CC(C(=O)O)c1ccc2oc(-c3ccc(Cl)cc3)nc2c1 (stereo not shown) [Benoxaprofen]	–	–	–	–	–	–	–	Apoptosis	< 0.1 unbound human Cmax multiplier	Apoptosis	100 unbound human Cmax multiplier	IF imaging Donor 2 ([1]; expanded drug list): Apoptosis
CCN(CC)C(=O)/C(C#N)=C/c1cc(O)c(O)c([N+](=O)[O-])c1 [Entacapone]	No findings	–	No findings	–	–	>300 multiples of the unbound human Cmax	–	–	–	–	–	–
O=c1[nH]c(=O)n([C@@H]2O[C@H](CO)[C@@H](O)[C@@H]2F)cc1I [FIRU]	No findings	–	No findings	Steatosis	–	>300 multiples of the unbound human Cmax	>300 multiples of the unbound human Cmax	–	–	–	–	–
O=c1[nH]c(=O)n([C@@H]2O[C@H](CO)[C@@H](O)[C@@H]2F)cc1I [Fialuridine]	No findings	–	No findings	Steatosis	–	–	–	–	>300 multiples of the unbound human Cmax	Steatosis	>300 multiples of the unbound human Cmax	–
CC(CCc1ccccc1)NCC(O)c1ccc(O)c(C(N)=O)c1 (stereo not shown) [Labetalol]	Apoptosis	–	–	–	–	–	–	Apoptosis	> 100 unbound human Cmax multiplier	Apoptosis	100 unbound human Cmax multiplier	IF imaging Donor 2 ([1]; expanded drug list): Apoptosis
C[C@H]1COc2c(N3CCN(C)CC3)c(F)cc3c(=O)c(C(=O)O)cn1c23 [Levofloxacin]	No findings	No findings	No findings	No findings	No findings	–	–	–	>15 multiples of the unbound human Cmax	–	>45 multiples of the unbound human Cmax	Immunofluorescence staining result in words [1]: did not cause cellular apoptosis; Morphology Donor 3 ([2]; human): >45 multiples of the unbound human Cmax
O=C(NC1CCN(CCCCC2(C(=O)NCC(F)(F)F)c3ccccc3-c3ccccc32)CC1)c1ccccc1-c1ccc(C(F)(F)F)cc1 [Lomitapide]	No findings	–	–	–	–	–	–	No findings	–	–	–	Morphology Donor 1 ([2]; expanded drug list, lowest concentration causing an increase in morphology score, donor 1): < 0.1 unbound human Cmax multiplier
CCc1nn(CCCN2CCN(c3cccc(Cl)c3)CC2)c(=O)n1CCOc1ccccc1 [Nefazodone]	No findings	–	No findings	–	–	–	–	–	300 multiples of the unbound human Cmax	–	–	–
Cc1cc2c(s1)Nc1ccccc1N=C2N1CCN(C)CC1 [Olanzapine]	Apoptosis	No findings	Apoptosis	No findings	No findings	>300 multiples of the unbound human Cmax	>300 multiples of the unbound human Cmax	–	–	–	–	Morphology Score ([2]; Concentration_Day3 = 1): 2 and 1; Morphology Score ([2]; Concentration_Day3 = 3): 1.333 and 1; Morphology Score ([2]; Concentration_Day3 = 10): 2 and 1; Morphology Score ([2]; Concentration_Day3 = 30): 2; Morphology Score ([2]; Concentration_Day3 = 100): 1.667 and 1.333; Morphology Score ([2]; Concentration_Day3 = 300): 1.333 and 2; Morphology Donor 3 [2, 5]: >300 multiples of the unbound human Cmax
CCc1ccc(CCOc2ccc(CC3SC(=O)NC3=O)cc2)nc1 (stereo not shown) [Pioglitazone]	Apoptosis	–	Apoptosis	No findings	–	–	–	–	>300 multiples of the unbound human Cmax	No findings	>300 multiples of the unbound human Cmax	–
Cc1cc2c(cc1CC(=O)c1sccc1S(=O)(=O)Nc1onc(C)c1Cl)OCO2 [Sitaxsentan]	Mitotoxicity	Mitotoxicity	Mitotoxicity	Mitotoxicity	Mitotoxicity	100 multiples of the unbound human Cmax	100 multiples of the unbound human Cmax	–	–	Mitotoxicity	–	Immunofluorescence staining result in words [1]: concentration-dependent decrease in TMRM staining; Morphology Donor 3 [2, 5]: 100 multiples of the unbound human Cmax
